Common to all, as to assay: NCI-60 cell line screen, 48 h
For experiment [1], the system named is SNB-78.
The subject of experiment [2] is NCI-H23.
In experiment [3] the test system is M19-MEL.
Experiment [4] has as its system SNB-75.
The test system of experiment [5] is SN12C.
In experiment [6] the test system is SK-MEL-28.
Experiment [7] has as its system HT-29.
Experiment [8] has as its system 786-0.
In experiment [9] the test system is SNB-19.
For experiment [10], the system named is ACHN.
Experiment [11] concerns DMS-273.
Experiment [12] concerns SF-268.
Experiment [13] deals with SF-539.
The subject of experiment [14] is K562.
Experiment [15] deals with OVCAR-4.
The test system of experiment [16] is HOP-62.
The test system of experiment [17] is T47D.
Experiment [18] relates to BT-549.
The subject of experiment [19] is PC-3.

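How tested: cells in 96-well plates exposed to compound for 48 hours at five concentrations. Here, GI50 denotes the concentration required for 50% inhibition of growth.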 Activity calls are given as the source filed them. No stated cut-off is given here; in the data, active = GI50 up to about 1.1 µM and inactive = higher.

Take `Cc1ccc(S(=O)(=O)NC(=O)C2(Br)S(=O)(=O)OCCOS2(=O)=O)cc1`: the GI50 in experiment [1], in experiment [2], in experiment [3], in [4], in [5] and in experiment [6] was > 100 µM (inactive) each time. In addition, the GI50 in [7], in experiment [8], in experiment [9], in [10], in experiment [11] and in experiment [12] was > 100 µM (inactive) in each case. The GI50 in experiment [13], in experiment [14], in [15] and in experiment [16] was > 100 µM (inactive) in each case.

With `CN(C)CCNS(=O)(=O)N(C)C`, the GI50 in [2], in experiment [4], in experiment [17], in experiment [5], in experiment [6] and in experiment [18] was > 100 µM (inactive) in each case. Further, the GI50 in [7], in [8], in experiment [9], in experiment [19], in [10] and in [12] was > 100 µM (inactive) in each case. The GI50 in experiment [13], in experiment [14], in [15] and in experiment [16] was > 100 µM (inactive) throughout.

Regarding `CCOC(=O)C(C(=O)OCC)=C1NC2(c3ccccc3Nc3ccc(C)cc32)C(C#N)S1` (centres undefined), the GI50 in experiment [2] is 3.56 µM (inactive); in experiment [4], 8.55 µM (inactive); in [17] it was 4.39 µM (inactive); in [5] it was 3.24 µM (inactive); in experiment [6], 18.2 µM (inactive); in experiment [18] it was 14 µM (inactive). Further, the GI50 in [7] is 3.56 µM (inactive); in experiment [8], 6.79 µM (inactive); in experiment [9], 6.58 µM (inactive); in experiment [19], 3.56 µM (inactive); in experiment [10], 3.47 µM (inactive); in [12] it was 9.12 µM (inactive). The GI50 in [13] is 3.72 µM (inactive); in [14], 4.9 µM (inactive); in [15], 5.66 µM (inactive); in experiment [16] it was 11.4 µM (inactive).

Take `Cc1c(O)c(OC2OC(CO)C(O)C(O)C2O)cc2c1C=C[C@@H]1[C@@]2(C)C(=O)C[C@]2(C)[C@@H]([C@@](C)(O)C(=O)CCC(C)(C)O)[C@H](O)C[C@@]12C` (some centres undefined): the GI50 was 17.1 µM (inactive) in experiment [2]; 25.1 µM (inactive) in experiment [4]; 18.7 µM (inactive) in [17]; 19.8 µM (inactive) in experiment [5]; 21.1 µM (inactive) in [6]; 26.9 µM (inactive) in [18]. Also, the GI50 was 28.8 µM (inactive) in experiment [7]; 25.2 µM (inactive) in [8]; 23.2 µM (inactive) in experiment [9]; 21.6 µM (inactive) in experiment [19]; 19.6 µM (inactive) in experiment [10]; 28.7 µM (inactive) in experiment [12]. In addition, the GI50 in experiment [13] was 18.1 µM (inactive); in experiment [14], 34.1 µM (inactive); in [15] it was 25.4 µM (inactive); in experiment [16], 31.7 µM (inactive).

As to `C=CCOC(=O)N1c2ccc(O[Si](C)(C)C(C)(C)C)cc2[C@@]23O[C@@]24[C@@H]1C#C/C=C\C#C[C@]3(O)C(OC)(OC)C[C@@H]4C`, the GI50 was 16.3 µM (inactive) in experiment [2]; 4.82 µM (inactive) in experiment [4]; 25.3 µM (inactive) in experiment [17]; > 84.7 µM (inactive) in [5]; > 100 µM (inactive) in [6]; > 100 µM (inactive) in experiment [18]. Besides, the GI50 in experiment [7] was 12.9 µM (inactive); in experiment [8], 43.5 µM (inactive); in experiment [9], > 74.6 µM (inactive); in [19], 4.54 µM (inactive); in [10], 10.6 µM (inactive); in experiment [12], 97.7 µM (inactive). Moreover, the GI50 in experiment [13] was > 29.2 µM (inactive); in experiment [14], 4.14 µM (inactive); in experiment [15] it was 48.6 µM (inactive); in experiment [16], > 61.7 µM (inactive).

With `CC1=C(C)C(=O)OC(C(C)(O)C2(O)CC3OC34C3CC(O)C56OC5C=CC(=O)C6(C)C3CCC42C)C1` (centres undefined), the GI50 in experiment [2] was 1.91 µM (inactive); in experiment [4] it was 3.78 µM (inactive); in experiment [17], 2.99 µM (inactive); in [5] it was 2.82 µM (inactive); in experiment [6] it was 1.41 µM (inactive); in experiment [18] it was 0.914 µM (active). Also, the GI50 in [7] is 1.15 µM (inactive); in experiment [8], 1.51 µM (inactive); in experiment [9], 4.12 µM (inactive); in [19] it was 2.87 µM (inactive); in experiment [10], 0.845 µM (active); in experiment [12], 1.64 µM (inactive). For the same compound, the GI50 in [13] is 2 µM (inactive); in [14], 0.927 µM (active); in experiment [15], 4.71 µM (inactive); in [16], 11 µM (inactive).

Consider `O=C(O)CS(=O)(=O)C(c1ccccc1)c1ccccc1`, for which the GI50 in experiment [2], in experiment [4], in experiment [17], in experiment [5], in experiment [6] and in experiment [18] was > 100 µM (inactive) each time. In addition, the GI50 in [7], in experiment [8], in experiment [9], in [19], in experiment [10] and in experiment [12] was > 100 µM (inactive) in each case. The GI50 in experiment [13], in [14], in experiment [15] and in experiment [16] was > 100 µM (inactive) throughout.

Turning to `COc1cccc(C2c3cc4c(cc3OC(Nc3ccccc3)C2C)OCO4)c1O` (centres undefined), the GI50 was 8.26 µM (inactive) in experiment [2]; 5.6 µM (inactive) in experiment [4]; 12.7 µM (inactive) in experiment [17]; 8.83 µM (inactive) in experiment [5]; 7.21 µM (inactive) in [6]; 10.6 µM (inactive) in experiment [18]. For the same compound, the GI50 in [7] is 5.74 µM (inactive); in experiment [8] it was 9.08 µM (inactive); in experiment [9] it was 15.2 µM (inactive); in experiment [19], 4.14 µM (inactive); in experiment [10], 10.9 µM (inactive); in [12], 12.2 µM (inactive). For the same compound, the GI50 in experiment [13] was 4.07 µM (inactive); in experiment [14], 2.83 µM (inactive); in [15], 36.3 µM (inactive); in [16] it was 12.9 µM (inactive).

Regarding `Cc1ccc2c(c1)C(C(=O)N[C@@H]1C(=O)N3[C@@H]1SC(C)(C)[C@@H]3C(=O)O)OCCC2` (some centres undefined), the GI50 in experiment [2], in experiment [4], in experiment [17], in experiment [5], in [6] and in [18] was > 100 µM (inactive) in each case. In addition, the GI50 in experiment [7], in [8], in experiment [9], in experiment [19], in experiment [10] and in experiment [12] was > 100 µM (inactive) throughout. The GI50 in experiment [13], in experiment [14], in experiment [15] and in experiment [16] was > 100 µM (inactive) throughout.

The record behind these values is ChEMBL document CHEMBL1201862, “PubChem BioAssay data set” (2004).
